Results from ChEMBL document CHEMBL1240451, “Studies on chemical modification and biology of a natural product, gambogic acid (II): Synthesis and bioevaluation of gambogellic acid and its derivatives from gambogic acid as antitumor agents” (Eur J Med Chem, 2010).
Activity calls are given as the source filed them. No cut-off for these calls is given here.

Experiments:
HT-29 [1] = experiment: Cytotoxicity against human HT-29 cells after 48 hrs by MTT assay; format: functional, cell-based; details: HT-29, 48 h
A549 [2] = experiment: cells; details: Homo sapiens, A549, 48 h
Description: Cytotoxicity against human A549 cells after 48 hrs by MTT assay

Bel-7402 [3] = experiment: Cytotoxicity against human Bel7402 cells after 48 hrs by MTT assay; format: functional, cell-based; details: Bel-7402, 48 h
BGC-823 [4] = experiment: Cytotoxicity against human BGC823 cells after 48 hrs by MTT assay; format: functional, cell-based; details: BGC-823, 48 h
BGC-823 [5] = experiment: Ratio of compound IC50 to gambogic acid IC50 for human BGC823 cells; format: functional
HT-29 [6] = experiment: Ratio of compound IC50 to gambogic acid IC50 for human HT-29 cells; format: functional
A549 [7] = experiment: Ratio of compound IC50 to gambogic acid IC50 for human A549 cells; format: functional
BGC-823 [8] = experiment: Induction of apoptosis human BGC823 cells assessed as increase of apoptotic cells at 2 uM after 20 hrs using Annexin-V/PI double-staining by flow cytometry (reference value: 3.9%); format: functional
BGC-823 [9] = experiment: Induction of apoptosis human BGC823 cells assessed as increase of apoptotic cells at 8 uM after 20 hrs using Annexin-V/PI double-staining by flow cytometry (reference value: 3.9%); format: functional
BGC-823 [10] = experiment: Induction of apoptosis human BGC823 cells assessed as increase of apoptotic cells at 4 uM after 20 hrs using Annexin-V/PI double-staining by flow cytometry (reference value: 3.9%); format: functional
BGC-823 [11] = experiment: Induction of apoptosis human BGC823 cells assessed as morphological changes at up to 8 uM after 48 hrs using Annexin-V/PI double-staining by light microscopic analysis; format: functional, cell-based
BGC-823 [12] = experiment: Induction of apoptosis human BGC823 cells assessed as increase of apoptotic cells after 20 hrs using Annexin-V/PI double-staining by flow cytometry (reference value: 3.9%); format: functional, cell-based
Bel-7402 [13] = experiment: Ratio of compound IC50 to gambogic acid IC50 for human Bel7402 cells; format: functional
BGC-823 [14] = experiment: Induction of apoptosis human BGC823 cells assessed as nuclear fragmentation at up to 8 uM after 20 hrs using Annexin-V/PI double-staining by light microscopic analysis; format: functional, cell-based

| Compound | IC50 (HT-29 [1]) [nM] | IC50 (A549 [2]) [nM] | IC50 (Bel-7402 [3]) [nM] | IC50 (BGC-823 [4]) [nM] | Ratio IC50 (BGC-823 [5]) | Ratio IC50 (HT-29 [6]) | Ratio IC50 (A549 [7]) | Activity (BGC-823 [8]) [%] | Activity (BGC-823 [9]) [%] | Activity (BGC-823 [10]) [%] | Activity (BGC-823 [11]) | Activity (BGC-823 [12]) | Ratio IC50 (Bel-7402 [13]) | Activity (BGC-823 [14]) |
| --- | --- | --- | --- | --- | --- | --- | --- | --- | --- | --- | --- | --- | --- | --- |
| C/C(=C/C[C@@]12OC(C)(C)[C@H]3C[C@@H](C=C4C(=O)c5c(O)c6c(c(CCC(C)(C)Cl)c5O[C@]431)O[C@]1(C)CC(=O)C(C(C)C)C6C1)C2=O)C(=O)O (some centres undefined) | 5600 | 27600 | 4120 | 2930 |  |  |  |  |  |  |  |  |  |  |
| C=C(C)C1CC[C@]2(C)CC1c1c(O)c3c(c(CCC(C)(C)Cl)c1O2)O[C@]12[C@@H]4C[C@H](C(=O)[C@]1(C/C=C(/C)C(=O)O)OC4(C)C)C(O)C2(O)C3=O (some centres undefined) | > 100000 | > 100000 | > 100000 | > 100000 |  |  |  |  |  |  |  |  |  |  |
| COC(=O)/C(C)=C\C[C@@]12OC(C)(C)[C@H]3C[C@@H](C=C4C(=O)c5c(O)c6c(c(C/C=C(\C)CO)c5O[C@]431)O[C@]1(C)CCC(=C(C)C)C6C1)C2=O | 140 | 1560 | 11000 | 1420 | 2 | 14 | 2 |  |  |  |  |  |  |  |
| C/C(=C/C[C@@]12OC(C)(C)[C@H]3C[C@@H](C=C4C(=O)c5c(O)c6c(c(CCC(C)(C)Cl)c5O[C@]431)O[C@]1(C)CCC(C3(C)CO3)C6C1)C2=O)C(=O)O (some centres undefined) | 1330 | 3180 | 440 | 280 |  |  |  | 4.2 | 25.7 | 6.2 | Active | Dose-dependent effect | 4.7 | Active |
| CC(C)=CCC[C@]1(C)C=Cc2c(O)c3c(c(CC=C(C)C)c2O1)O[C@]12C(=C[C@@H]4C[C@H]1C(C)(C)O[C@@]2(C/C=C(/C)C(=O)O)C4=O)C3=O [GAMBOGIC ACID] | 3520 | 3650 | 2080 | 2830 |  |  |  |  |  |  |  |  |  |  |
| COC(=O)/C(C)=C\C[C@@]12OC(C)(C)[C@H]3C[C@@H](C=C4C(=O)c5c(O)c6c(c(CC7OC7(C)C)c5O[C@]431)O[C@]1(C)CCC(=C(C)C)C6C1)C2=O (some centres undefined) | 120 | 2340 | 8100 | 2530 |  | 14 |  |  |  |  |  |  |  |  |
| C=C(C)C1CC[C@]2(C)CC1c1c(O)c3c(c(CC=C(C)C)c1O2)O[C@]12C(=C[C@@H]4C[C@@H]1C(C)(C)O[C@@]2(C/C=C(/C)C(=O)O)C4=O)C3=O (some centres undefined) [GAMBOGELLIC ACID] | 1340 | 1120 | 6480 | 460 |  |  | 2 |  |  |  |  |  |  |  |
| C=C(C)C1CC[C@]2(C)CC1c1c(O)c3c(c(CC=C(C)C)c1O2)O[C@]12C(=C[C@@H]4C[C@@H]1C(C)(C)O[C@@]2(C/C=C(/C)C(=O)OC)C4=O)C3=O (some centres undefined) | 810 | 1790 | 4560 | 2610 |  | 4 | 2 |  |  |  |  |  |  |  |
| COC(=O)/C(C)=C\C[C@@]12OC(C)(C)[C@H]3C[C@@H](C=C4C(=O)c5c(O)c6c(c(CC=C(C)C)c5O[C@]431)O[C@]1(C)CCC(C3(C)CO3)C6C1)C2=O (some centres undefined) | 490 | 2420 | 4380 | 920 | 2 | 4 |  |  |  |  |  |  |  |  |
| C=C(C)C1CC[C@]2(C)CC1c1c(O)c3c(c(C/C=C(\C)CO)c1O2)O[C@]12C(=C[C@@H]4C[C@@H]1C(C)(C)O[C@@]2(C/C=C(/C)C(=O)OC)C4=O)C3=O (some centres undefined) | 240 | 980 | 13000 | 620 | 2 | 14 | 2 |  |  |  |  |  |  |  |
| COC(=O)/C(C)=C\C[C@@]12OC(C)(C)[C@H]3C[C@@H](C=C4C(=O)c5c(O)c6c(c(CC=C(C)C)c5O[C@]431)O[C@]1(C)CCC(=C(C)C)C6C1)C2=O | 540 | 5550 | 7860 | 6620 |  | 4 |  |  |  |  |  |  |  |  |
| C=C(C)C1CC[C@]2(C)CC1c1c(O)c3c(c(CCC(C)(C)Cl)c1O2)O[C@]12C(=C[C@@H]4C[C@@H]1C(C)(C)O[C@@]2(C/C=C(/C)C(=O)OC)C4=O)C3=O (some centres undefined) | 4550 | 4630 | 2630 | 1980 | 2 |  |  |  |  |  |  |  |  |  |
| C=C(C)C1CC[C@]2(C)CC1c1c(O)c3c(c(CCC(C)(C)Cl)c1O2)O[C@]12C(=C[C@@H]4C[C@@H]1C(C)(C)O[C@@]2(C/C=C(/C)C(=O)O)C4=O)C3=O (some centres undefined) | 1640 | 1240 | 18100 | 4000 |  |  | 2 |  |  |  |  |  |  |  |
